Values quoted from earlier work as cited in patent publication US11559045B2, “Synergistic mixture for inducing hygienic behavior in honey bees, and related compositions and methods” (University of North Carolina at Greensboro, priority 2019, dated 2023).

System: honey bees
Conditions: previously shown (US 2018/0177160; Nazzi et al. 2004)

Row | Compound | induction of hygienic behavior in honey bees
1 | CCCCCCCCC/C=C\CCCCCCCCCCCCCCCCCCCCCC [Compound (I), (Z)-10-tritriacontene] | induce hygienic behavior
2 | CCCCC/C=C\CCCCCCCC [Compound (IV), (Z)-6-pentadecene] | induce hygienic behavior
